In the test the target is T1, BST pol (Bacillus stearothermophilus DNA polymerase) (Geobacillus stearothermophilus, UniProt P52026).
T1 construct: gene polA
T1 sequence (P52026 297-876 limits assumed): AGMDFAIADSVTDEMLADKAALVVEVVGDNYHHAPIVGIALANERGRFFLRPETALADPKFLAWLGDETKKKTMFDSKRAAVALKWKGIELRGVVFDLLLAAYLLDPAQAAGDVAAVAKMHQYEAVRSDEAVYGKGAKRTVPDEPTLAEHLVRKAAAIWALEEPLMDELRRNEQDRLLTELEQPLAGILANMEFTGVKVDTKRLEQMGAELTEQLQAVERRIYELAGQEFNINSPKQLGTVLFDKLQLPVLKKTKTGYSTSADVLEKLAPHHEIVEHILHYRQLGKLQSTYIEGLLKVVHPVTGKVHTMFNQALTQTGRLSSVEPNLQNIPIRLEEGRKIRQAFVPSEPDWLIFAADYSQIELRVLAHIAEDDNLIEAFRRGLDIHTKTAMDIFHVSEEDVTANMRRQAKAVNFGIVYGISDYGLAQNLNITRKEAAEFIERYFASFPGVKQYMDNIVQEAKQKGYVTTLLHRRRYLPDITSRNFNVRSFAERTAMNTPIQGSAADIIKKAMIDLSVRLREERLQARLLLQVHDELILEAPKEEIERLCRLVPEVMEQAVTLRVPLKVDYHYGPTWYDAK
In words: equilibrium 2-aminopurine fluorescence quenching titration. The format is binding. The note with it: read-out: Kd,g.

In article PMC5992921, “The effect of different divalent cations on the kinetics and fidelity of Bacillus stearothermophilus DNA polymerase” (AIMS biophysics, 2018) one finds Kd data, which are given here for one compound.

`Nc1ccn([C@H]2C[C@H](O)[C@@H](COP(=O)(O)OP(=O)(O)OP(=O)(O)O)O2)c(=O)n1` [dCTP]: the Kd (as a rule, the constant that tells how readily two partners part at equilibrium) was 1.46 ± 0.13 mM.
